The test system of data set [1] is T1, mODH-582.
T1 construct: N-terminal His-tag, pET14b, E. coli BL21(DE3); codon-optimised synthetic gene; source reads SRR16606022; one of 11 TPA records BK063522-BK063532 (not assigned singly)
The data set is described as follows: NAD(P)H absorbance at […] nm, Michaelis-Menten. Type of data set: biochemical, hot spring metagenome. The conditions noted are these: pyruvate 10 mM, NAD(P)H 0.2 mM, 100 mM sodium phosphate pH 8.0, 30 °C; read-out: L-Phe / KM.

The test system of another data set is T2, mODH-55.
T2 construct: N-terminal His-tag, pET14b, E. coli BL21(DE3); codon-optimised synthetic gene; source reads SRR16606022; one of 11 TPA records BK063522-BK063532 (not assigned singly)
The data set is described as follows: NAD(P)H absorbance at […] nm, Michaelis-Menten. It is filed as biochemical, hot spring metagenome. The following applies: pyruvate 10 mM, 100 mM sodium phosphate pH 8.0, 30 °C.

The test system of the next data set is T3, mODH-45.
T3 construct: N-terminal His-tag, pET14b, E. coli BL21(DE3); codon-optimised synthetic gene; source reads SRR16606022; one of 11 TPA records BK063522-BK063532 (not assigned singly)
The data set is described as follows: NAD(P)H absorbance at […] nm, Michaelis-Menten. The conditions noted are these: pyruvate 10 mM, 100 mM sodium phosphate pH 8.0, 30 °C. Type of data set: biochemical, hot spring metagenome.

The test system of data set [2] is T1, mODH-582. The data set is described as follows: NAD(P)H absorbance at […] nm, Michaelis-Menten. Type of data set: biochemical, hot spring metagenome. The following applies: pyruvate 10 mM, 100 mM sodium phosphate pH 8.0, 30 °C.
Another data set relates to T4, mODH-49.
T4 construct: N-terminal His-tag, pET14b, E. coli BL21(DE3); codon-optimised synthetic gene; source reads SRR16606022; one of 11 TPA records BK063522-BK063532 (not assigned singly)
The data set is described as follows: NAD(P)H absorbance at […] nm, Michaelis-Menten. It is filed as biochemical, hot spring metagenome. The following applies: pyruvate 10 mM, 100 mM sodium phosphate pH 8.0, 30 °C.

The test system of a further data set is T5, mODH-48.
T5 construct: N-terminal His-tag, pET14b, E. coli BL21(DE3); codon-optimised synthetic gene; source reads SRR16606022; one of 11 TPA records BK063522-BK063532 (not assigned singly); identical to an obsolete UniParc entry
The data set is described as follows: NAD(P)H absorbance at […] nm, Michaelis-Menten. Type of data set: biochemical, hot spring metagenome. The following applies: pyruvate 10 mM, 100 mM sodium phosphate pH 8.0, 30 °C.

Another data set relates to T6, mODH-47.
T6 construct: N-terminal His-tag, pET14b, E. coli BL21(DE3); codon-optimised synthetic gene; source reads SRR16606022; one of 11 TPA records BK063522-BK063532 (not assigned singly)
The data set is described as follows: NAD(P)H absorbance at […] nm, Michaelis-Menten. It is filed as biochemical, hot spring metagenome. The conditions noted are these: pyruvate 10 mM, 100 mM sodium phosphate pH 8.0, 30 °C.

Substrate in data set [3]: NC(=O)C1=CN([C@@H]2O[C@H](COP(=O)(O)OP(=O)(O)OC[C@H]3O[C@@H](n4cnc5c(N)ncnc54)[C@H](O)[C@@H]3O)[C@@H](O)[C@H]2O)C=CC1
The data set is described as follows: purified protein, by the assay type. Also noted: Michaelis-Menten kinetics of reductive amination with pyruvate, NAD(P)H consumption by absorbance at 340 nm, 30 °C, pH 8.0. As for the experimental part:
(§1) Enzyme activities were measured spectrophotometrically at 30 °C in 96-well half-area plates in a Thermo Scientific™ Multiskan SkyHigh Microplate Spectrophotometer (Thermo Fisher Scientific Inc., Waltham, MA, USA). Standard assays were carried out by using 15 mM amino acid and 0.2 mM NAD(P)H in 100 mM sodium phosphate buffer (pH = 8.0). The reaction was started by the addition of 10 mM pyruvate. The decrease in absorbance was monitored at 340 nm. Initial velocities (v0) were calculated from the linear section of the plots using an NAD(P)H calibration. For the determination of kinetic constants, amino acid concentrations were varied between 1 and 30 mM, while cofactor concentrations were between 0.04 and 0.5 mM. Depending on the specific activities of each enzyme, enzyme concentrations were fixed between 0.015 and 1.5 µM (Tables S9-S12). Kinetic constants were determined from the Michaelis–Menten plots using GraphPad Prism software (Tables S9-S12, Figures S15-S18). Heat stability experiments were carried out by incubating the enzymes at 40, 50, or 60 °C for 1 h before measuring their specific activities. Nine selected mODH genes as well as the coding sequence of ArODH were codon optimized for E. coli, synthesized by Genescript and cloned into pET14b vector using NdeI and BamHI cloning sites resulting in N-terminal His-tag proteins (for protein and nucleotide sequences see Table S2). Plasmids were transformed into E.coli BL21(DE3) chemically competent cells, and 5 mL overnight cultures were grown in Luria–Bertani (LB) medium supplemented with carbenicillin. Then, 4 mL was added to 500 mL fresh LB medium. The culture was grown at 37 °C to OD = 0.5 and induced by addition of 0.5 mM IPTG. The flasks were then incubated in a shaker at 18 °C overnight. The cells were harvested by centrifugation at 4000 rpm, 4 °C for 30 min. The pellets were resuspended in lysis buffer (50 mM Tris pH = 8.5, 300 mM NaCl, 1 mM benzamidine, 2 mM [compound left out] [compound left out], 1 mM Tris(2-carboxyethyl)phosphine (TCEP), DNase) and lysed by ultrasonication. The suspension was centrifuged at 11,000 rpm, 4 °C for 30 min. The supernatant was loaded onto equilibrated Ni–NTA column and washed with 15 mM imidazole in lysis buffer. The bound protein was eluted with 250 mM imidazole in lysis buffer and then dialyzed in 50 mM Tris pH = 8.5. The resulting solution was aliquoted after addition of 10% glycerol and then stored at − 20 °C until further use. Total protein concentration was determined based on absorption at 280 nm measured on a NanoDrop spectrophotometer. With this method, six mODHs and ArODH could be purified (see Table S2). Three mODHs were not expressed in soluble form in this experimental setting.

Substrate in data set [4]: N[C@@H](Cc1ccccc1)C(=O)O
The data set is described as follows: purified protein, by the assay type. Also noted: Michaelis-Menten kinetics of reductive amination with pyruvate, NAD(P)H consumption by absorbance at 340 nm, 30 °C, pH 8.0. As for the experimental part: as §1

Substrate in data set [5]: N[C@@H](Cc1ccccc1)C(=O)O
The data set is described as follows: purified protein. It is filed as biochemical, Arthrobacter sp. 1C. The conditions noted are these: pyruvate 10 mM, NAD(P)H 0.2 mM, 100 mM sodium phosphate pH 8.0, 30 °C.

Substrate in data set [6]: N[C@@H](CC(=O)O)C(=O)O
The data set is described as follows: purified protein. The following applies: pyruvate 10 mM, NAD(P)H 0.2 mM, 100 mM sodium phosphate pH 8.0, 30 °C.

[7] abbreviates: L-Asp 15 mM, read-out: NADH / KM.
Setting [8] is: L-Asp 15 mM, read-out: NADPH / KM.
Where [9] appears, read: NAD(P)H 0.2 mM, read-out: L-Asp / KM.

This is an account of results in publication PMC10787698, “Discovery and biocatalytic characterization of opine dehydrogenases by metagenome mining” (Applied Microbiology and Biotechnology, 2024).

Read-outs that look alike come from different tables or passages of the source.

For the molecule `N[C@@H](Cc1ccccc1)C(=O)O` [L-Phe], the Km with mODH-582 [1] came out at 32700 ± 4700 µM.

Regarding `NC(=O)C1=CN([C@@H]2O[C@H](COP(=O)(O)OP(=O)(O)OC[C@H]3O[C@@H](n4cnc5c(N)ncnc54)[C@H](O)[C@@H]3O)[C@@H](O)[C@H]2O)C=CC1` [NADH], the Km in the data set with mODH-55 (setting [7]) came out at 442 ± 63 µM; in the data set on mODH-45 (setting [7]) it was 447 ± 64 µM; in the data set on mODH-582 [2] (setting [7]), 29 ± 11 µM; in the data set with mODH-49 (setting [7]), 1830 ± 423 µM; in the data set with mODH-48 (setting [7]), 93 ± 15 µM.

For the molecule `NC(=O)C1=CN([C@@H]2O[C@H](COP(=O)(O)OP(=O)(O)OC[C@H]3O[C@@H](n4cnc5c(N)ncnc54)[C@H](OP(=O)(O)O)[C@@H]3O)[C@@H](O)[C@H]2O)C=CC1` [NADPH], the Km in the data set with mODH-55 (setting [8]) is 68 ± 13 µM; in the data set on mODH-45 (setting [8]) it was 118 ± 24 µM; with mODH-582 [2] (setting [8]) it was 318 ± 112 µM; with mODH-47 (setting [8]), 93 ± 21 µM; in the data set with mODH-49 (setting [8]) it was 85 ± 17 µM; in the data set on mODH-48 (setting [8]), 17 ± 7 µM.

For the molecule `N[C@@H](CC(=O)O)C(=O)O` [compound 3, L-Asp], the Km with mODH-55 (setting [9]) worked out at 1500 ± 200 µM; in the data set with mODH-45 (setting [9]), 21500 ± 5300 µM; with mODH-582 [2] (setting [9]) it was 24800 ± 4600 µM; in the data set on mODH-47 (setting [9]), 1200 ± 300 µM; in the data set on mODH-49 (setting [9]) it was 15000 ± 2300 µM; in the data set on mODH-48 (setting [9]), 500 ± 100 µM.

B1: ArODH (Arthrobacter sp. 1C) (protein)
chain: MIESKTYAVLGLGNGGHAFAAYLALKGQSVLAWDIDAQRIKEIQDRGAIIAEGPGLAGTAHPDLLTSDIGLAVKDADVILIVVPAIHHASIAANIASYISEGQLIILNPGATGGALEFRKILRENGAPEVTIGETSSMLFTCRSERPGQVTVNAIKGAMDFACLPAAKAGWALEQIGSVLPQYVAVENVLHTSLTNVNAVMHPLPTLLNAARCESGTPFQYYLEGITPSVGSLAEKVDAERIAIAKAFDLNVPSVCEWYKESYGQSPATIYEAVQGNPAYRGIAGPINLNTRYFFEDVSTGLVPLSELGRAVNVPTPLIDAVLDLISSLIDTDFRKEGRTLEKLGLSGLTAAGIRSAVE
notes: N-terminal His-tag, pET14b, E. coli BL21(DE3); codon-optimised synthetic gene
The term Vmax denotes the top rate of the reaction or transport when substrate is in excess. What is called kcat is the number of substrate molecules converted per active site and unit of time at saturation. For orientation: kcat/Km means the second-order rate constant that governs catalysis at low substrate concentration. Take B1: in [3], the Km stood at 292 ± 77 µM, the Vmax was 0.11 µmol/min and the kcat worked out at 1240 ± 174 s⁻¹. Besides, in data set [4], the Km amounted to 18100 ± 4500 µM, the Vmax was 0.001 µmol/min and the kcat is 11.1 ± 1.5 s⁻¹. For the same molecule, in the data set “purified protein [5]”, the Km was 1400 ± 500 µM, the kcat was determined as 861 ± 70 s⁻¹ and the kcat/Km is 630000 M⁻¹ s⁻¹.

B2: ArODH (Arthrobacter sp. 1C; A111R/N198G) (protein)
chain: MIESKTYAVLGLGNGGHAFAAYLALKGQSVLAWDIDAQRIKEIQDRGAIIAEGPGLAGTAHPDLLTSDIGLAVKDADVILIVVPAIHHASIAANIASYISEGQLIILNPGRTGGALEFRKILRENGAPEVTIGETSSMLFTCRSERPGQVTVNAIKGAMDFACLPAAKAGWALEQIGSVLPQYVAVENVLHTSLTNVGAVMHPLPTLLNAARCESGTPFQYYLEGITPSVGSLAEKVDAERIAIAKAFDLNVPSVCEWYKESYGQSPATIYEAVQGNPAYRGIAGPINLNTRYFFEDVSTGLVPLSELGRAVNVPTPLIDAVLDLISSLIDTDFRKEGRTLEKLGLSGLTAAGIRSAVE
For B2, in the data set “purified protein [6]”, the Km was 58300 ± 19600 µM, the kcat was determined as 2.8 s⁻¹ and the kcat/Km is 50 M⁻¹ s⁻¹.
